Source: patent US20090215727A1, “INHIBITION OF ATP-MEDIATED, P2X7 DEPENDENT PATHWAYS BY PYRIDOXAL-5-PHOSPHATE AND VITAMIN B6 RELATED COMPOUNDS” (MEDICURE INTERNATIONAL INC., priority 2005, published 2009)
“Also recorded” adds a separate entry of the source.

Key:
HEK 293 cells = test: MTT cell viability assay in parent HEK 293 cells; type: cell-based
Experimental: (§1) Parent (HEK 293) cells, and HEK 293 cells expressing rat P2X7 (HEK 293 P2X7 (rat) cells) were treated with ATP (Sigma, A9062) to determine the effects of ATP on the viability of the cells. Cell viability was determined using an MTT assay (Wen, 2003). Cells were treated with between 0 and 2 μM of ATP. MTT was added to the cell cultures 180 minutes after ATP treatment. The MTT assay was performed 60 minutes after the addition of MTT. Cell viability was directly correlatable to the absorbance of 550 nm light by the cell culture, with a higher absorbance meaning higher cell viability. The cell culture media was removed and the cells were solubilized using DMSO. The absorbance of the solubilized cells was read.
(§2) HEK 293 and HEK 293 P2X7 (rat) cells were treated with 0 to 50 μM of P5P, a vitamin B6 related compound, in sodium salt form (Chemistry Department, CanAm Bioresearch Inc.). Thirty minutes later, cells were treated with 0.4 μM ATP, to determine the effects of ATP on the viability of the MC-1 treated cells. Control cells received sham treatment of P5P, and sham treatment of ATP.
Cell viability was determined using an MTT assay. MTT was added to the cell cultures 180 minutes after ATP treatment. […] Cell viability was directly correlatable to the absorbance of 550 nm light by the cell culture, with a higher absorbance meaning higher cell viability.

rat P2X7 receptor = molecular target: T1, rat P2X7 receptor (Rattus norvegicus, UniProt Q64663); test: MTT cell viability assay in HEK 293 cells stably expressing rat P2X7 (ATP-mediated, P2X7-dependent cell death); type: cell-based; conditions: HEK 293 P2X7 (rat) cells
T1 construct: expressed in transfected cells; host or cells: HEK 293
T1 sequence (Q64663 1-595): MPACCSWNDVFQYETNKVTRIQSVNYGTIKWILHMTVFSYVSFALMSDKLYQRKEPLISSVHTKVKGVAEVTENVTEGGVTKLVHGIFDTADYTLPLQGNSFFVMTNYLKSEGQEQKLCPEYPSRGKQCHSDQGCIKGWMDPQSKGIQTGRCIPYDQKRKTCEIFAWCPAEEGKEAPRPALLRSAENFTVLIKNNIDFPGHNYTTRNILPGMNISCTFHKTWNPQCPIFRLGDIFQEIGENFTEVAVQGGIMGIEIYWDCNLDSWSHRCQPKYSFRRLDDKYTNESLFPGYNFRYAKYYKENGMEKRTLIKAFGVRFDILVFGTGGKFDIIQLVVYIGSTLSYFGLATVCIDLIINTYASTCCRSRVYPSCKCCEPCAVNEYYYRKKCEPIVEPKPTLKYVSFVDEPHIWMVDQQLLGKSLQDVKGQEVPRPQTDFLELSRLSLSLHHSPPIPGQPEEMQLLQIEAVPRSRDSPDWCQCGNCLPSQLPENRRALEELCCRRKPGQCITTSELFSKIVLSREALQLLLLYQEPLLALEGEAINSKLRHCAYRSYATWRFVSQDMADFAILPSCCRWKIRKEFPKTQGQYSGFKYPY
Experimental: HEK 293 cells were stably transfected to express rat P2X7 receptor, using standard tissue culture techniques (Surprenant et al, 1996). The cell line was known to not express any of the other P2X receptors (Schachter et al, 1997). Stable expression of P2X7 was confirmed by Western blot (results not shown).
as §1, §2
Cell viability was determined using an MTT assay. MTT was added to the cell cultures 180 minutes after ATP treatment. The MTT assay was performed 60 minutes after the addition of MTT. Cell viability was directly correlatable to the absorbance of 550 nm light by the cell culture, with a higher absorbance meaning higher cell viability.

[1] = system: IL-1β processing and release from PMA/LPS stimulated THP-1 cells; test: ATP-induced processing and release of IL-1β from PMA/LPS stimulated THP-1 cells (human IL-1β ELISA); type: cell-based; conditions: 5 mM ATP for one hour; for effect on ATP-induced processing and release of IL-1β: test compound 0.5-150 μM, 30 min pretreatment, IL-1β in media by ELISA
Experimental: THP-1 non-adherent, monocytic cells (ATCC) were pre-treated with phorbol-12-myristate-13-acetate (PMA), which differentiated the cells into macrophage-like cells. Briefly, approximately 8×10^6 THP-1 cells were harvested, pelleted, resuspended in media to which PMA was added at a final concentration of 0.5 μM. The cells were incubated for 3 hours, then collected, washed, and plated.
The next day, the cells were treated with lipopolysaccharide (LPS) to stimulate IL-1β production. Briefly, the media was removed and replaced with RPI media+10% fetal calf serum containing 100 ng/ml of LPS. Cells were incubated for an additional 24 hours.
Cells were pretreated for 30 minutes, then the media was replaced with media containing 5 mM ATP as well as the test compound. Cells were exposed to ATP for one hour. Media was then collected and the amount of IL-1β in the media was determined using a human IL-1β ELISA (R&D Systems).
Results were expressed as the mean±sem. Statistical analysis was performed using […] (Medistats). […] IL-1β levels were measured in the cell culture media by ELISA and the results are expressed as a percent of the untreated (baseline) controls.

P2X7 receptors = molecular target: T2, P2X7 receptors (Rattus norvegicus, UniProt Q64663); test: BzATP-mediated, P2X7-dependent cell death (Examples 1-2 repeated with BzATP); type: cell-based; conditions: BzATP substituted for ATP; example in present tense
T2 construct: expressed in transfected cells; host or cells: HEK 293
T2 sequence (Q64663 1-595): T1 sequence (Q64663 1-595)
Source text: Examples 1-2 are repeated, substituting BzATP for ATP. BzATP is known to be a specific agonist of P2X7 receptors. This Example yields results consistent with Examples 1-4, further establishing that the pathway utilized is a P2X7 dependent pathway.

IL-1β = test: Cytokine response of lipopolysaccharide treated rats (plasma IL-1β); type: in vivo, Sprague-Dawley rats; conditions: blood at 240 min, example in present tense
Experimental: Sprague-Dawley rats weighing approximately 300 g are treated with 1, 3, or 10 mg/kg P5P (or a saline control). Thirty minutes later (t=30), the animals are given a 50 μg/kg intraperitoneal injection of LPS (or a saline control). Temperature of the animals is measured, and a blood sample is collected at 240 minutes post-treatment (t=240).
Blood samples are transferred to heparinized tubes and plasma is separated by centrifugation. Plasma is assayed for IL-1β, [IL-6 and TNF-α].

Molecule: Nc1ncnc2c1ncn2[C@@H]1O[C@H](COP(=O)(O)OP(=O)(O)OP(=O)(O)O)[C@@H](O)[C@H]1O [ATP, adenosine triphosphate]
- cell viability (MTT, absorbance at 550 nm) (HEK 293 cells; parent HEK 293 cells, up to 2 μM ATP, MTT added 180 min after ATP): did not significantly affect
- ATP concentration from which significant loss in cell viability starts (MTT) (rat P2X7 receptor; 0 to 2 μM ATP tested): ≥ 0.4 µM
- processing and release of IL-1β into the culture media ([1]; PMA/LPS primed THP-1 cells, versus untreated baseline): significant increase

Molecule: Cc1ncc(COP(=O)(O)O)c(C=O)c1O [P5P, pyridoxal-5′-phosphate]
- protection from BzATP-mediated, P2X7-dependent cell death (P2X7 receptors): Protects Cells
- cell viability (MTT) after P5P pretreatment and ATP (HEK 293 cells; HEK 293 cells, 0 to 50 μM P5P 30 min before 0.4 μM ATP): did not have any significant effect
- cell viability (MTT) of ATP treated cells after P5P pretreatment (rat P2X7 receptor; 50 μM P5P half an hour before 0.4 μM ATP): significantly improved
- viability of P5P pretreated, ATP treated cells compared with control cells (rat P2X7 receptor; 50 μM P5P, 0.4 μM ATP, control = sham P5P and sham ATP): no significant difference
- cell viability (MTT) of ATP treated cells after P5P pretreatment (rat P2X7 receptor; 1.5 to 15 μM P5P 30 min before 0.4 μM ATP): did not significantly affect
- processing and release of IL-1β in vivo (plasma) (IL-1β; rats, 1, 3 or 10 mg/kg P5P 30 min before 50 μg/kg i.p. LPS): significantly inhibits
- effect on ATP-induced processing and release of IL-1β [1]: uniquely effective; also recorded: significantly inhibited

Molecule: Cc1ncc(CO)c(C=O)c1O [pyridoxal]
- effect on ATP-induced processing and release of IL-1β [1]: not effective; also recorded: no significant effect

Molecule: Cc1ncc(CO)c(CN)c1O [pyridoxamine]
- effect on ATP-induced processing and release of IL-1β [1]: not effective; also recorded: no significant effect

Molecule: Cc1ncc(CO)c(CO)c1O [pyridoxine]
- effect on ATP-induced processing and release of IL-1β [1]: not effective; also recorded: no significant effect

Molecule: lipopolysaccharide [LPS]
- processing and release of IL-1β [IL-6 and TNF-α] into the plasma (IL-1β; rats, 50 μg/kg intraperitoneal LPS): significant increase

Molecule: pyridoxamine phosphate
- effect on ATP-induced processing and release of IL-1β [1]: not effective; also recorded: no significant effect
